Values of other authors as cited in patent US20230404915A1, “RAPIDLY […] COMPOSTIONS AND METHODS (Nicotine)” (ORCOSA INC., priority 2020, published 2023).

Biological target: nicotinic acetylcholine receptors (nAChRs) (Homo sapiens, UniProt P17787+P43681)
Settings: peak levels of nicotine after smoking a cigarette; brain α4β2 nAChRs

nicotinic acetylcholine receptors (nAChRs), sequence (P43681 29-627 limits assumed): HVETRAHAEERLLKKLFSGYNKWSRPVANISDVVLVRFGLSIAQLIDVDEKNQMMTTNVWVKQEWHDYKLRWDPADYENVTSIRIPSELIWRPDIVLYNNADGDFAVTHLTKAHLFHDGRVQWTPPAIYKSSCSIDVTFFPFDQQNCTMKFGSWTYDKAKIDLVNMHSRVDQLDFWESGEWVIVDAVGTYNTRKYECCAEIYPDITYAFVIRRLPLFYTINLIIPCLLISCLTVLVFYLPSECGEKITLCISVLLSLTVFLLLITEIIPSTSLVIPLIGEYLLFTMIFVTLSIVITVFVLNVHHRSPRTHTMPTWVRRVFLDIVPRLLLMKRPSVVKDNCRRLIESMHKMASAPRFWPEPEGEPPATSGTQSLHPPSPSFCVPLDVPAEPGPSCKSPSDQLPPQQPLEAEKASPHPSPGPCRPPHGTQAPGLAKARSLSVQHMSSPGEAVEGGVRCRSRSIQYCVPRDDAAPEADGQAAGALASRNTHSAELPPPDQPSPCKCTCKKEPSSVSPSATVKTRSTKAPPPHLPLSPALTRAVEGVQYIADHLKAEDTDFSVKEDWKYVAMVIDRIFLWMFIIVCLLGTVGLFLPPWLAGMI
nicotinic acetylcholine receptors (nAChRs), sequence (P17787 26-502): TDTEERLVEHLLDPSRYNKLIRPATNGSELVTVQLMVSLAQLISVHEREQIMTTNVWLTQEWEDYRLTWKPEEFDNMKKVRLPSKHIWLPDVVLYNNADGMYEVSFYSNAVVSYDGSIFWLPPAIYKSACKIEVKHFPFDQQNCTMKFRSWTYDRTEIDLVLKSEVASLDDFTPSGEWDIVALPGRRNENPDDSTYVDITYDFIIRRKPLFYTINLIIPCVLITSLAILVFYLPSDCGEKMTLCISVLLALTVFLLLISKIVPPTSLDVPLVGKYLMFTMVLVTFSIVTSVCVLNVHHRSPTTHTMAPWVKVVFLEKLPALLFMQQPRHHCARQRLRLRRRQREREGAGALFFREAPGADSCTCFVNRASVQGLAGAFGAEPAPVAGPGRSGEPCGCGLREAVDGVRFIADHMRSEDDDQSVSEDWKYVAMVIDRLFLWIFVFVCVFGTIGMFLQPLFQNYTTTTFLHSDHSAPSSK

CN1CCCC1c1cccnc1 (stereo not shown) [nicotine]
binding to the nicotinic acetylcholine receptors (nAChRs), saturation: around 90%
